Assays:
CAL-85-1 [1] = conditions: 72 h
Method in brief: (§1)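 For viability and cell death testing, 384-well plates carried compound at 5 concentrations in 10-fold steps over a compound-specific 10,000-fold range, and breast cancer cell lines were seeded in 20 µl suspension. After 72 h incubation, cell death was read by CellTox Green fluorescence (485/520 nm) before viability was read by CellTiter-Glo luminescence. EC50 was fitted from the dose-response curves and censored at the top concentration. Normalisation on each plate was to 0.1 % DMSO and a positive kill control.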

MDA-MB-453 [2] = conditions: 72 h
Method in brief: as §1

HCC1937 [3] = conditions: 72 h
Method in brief: as §1

MDA-MB-231 [4] = conditions: 72 h
Method in brief: as §1

CAL-51 [5] = conditions: 72 h
Method in brief: as §1

Hs578T [6] = conditions: 72 h
Method in brief: as §1

MCF-10A = conditions: 72 h
Method in brief: as §1

BT-474 [7] = conditions: 72 h
Method in brief: as §1

SK-BR-3 [8] = conditions: 72 h
Method in brief: as §1

BT-549 [9] = conditions: 72 h
Method in brief: as §1

MDA-MB-468 [10] = conditions: 72 h
Method in brief: as §1

MDA-MB-436 [11] = conditions: 72 h
Method in brief: as §1

CAL-120 [12] = conditions: 72 h
Method in brief: as §1

CAL-85-1 [13] = assay: normalised viability (% of control), CellTiter-Blue; higher = more viable cells (100 = DMSO, 0 = benzethonium chloride kill control); conditions: incubation time: 72 h
Method: (§2)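 DSRT, CellTiter-Blue viability, 72 h incubation. Signal is normalised to DMSO and benzethonium chloride controls. Value is the normalised response at dose 1.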

HCC1599 = assay: as above; conditions: incubation time: 72 h
Method: as §2

CAL-148 = assay: as above; conditions: incubation time: 72 h
Method: as §2

MFM-223 = assay: as above; conditions: incubation time: 72 h
Method: as §2

HCC1143 = assay: as above; conditions: incubation time: 72 h
Method: as §2

MDA-MB-453 [14] = assay: as above; conditions: incubation time: 72 h
Method: as §2

HCC1937 [15] = assay: as above; conditions: incubation time: 72 h
Method: as §2

MDA-MB-231 [16] = assay: as above; conditions: incubation time: 72 h
Method: as §2

CAL-51 [17] = assay: as above; conditions: incubation time: 72 h
Method: as §2

DU-4475 = assay: as above; conditions: incubation time: 72 h
Method: as §2

Hs578T [18] = assay: as above; conditions: incubation time: 72 h
Method: as §2

HDQ-P1 = assay: as above; conditions: incubation time: 72 h
Method: as §2

BT-474 [19] = assay: as above; conditions: incubation time: 72 h
Method: as §2

SK-BR-3 [20] = assay: as above; conditions: incubation time: 72 h
Method: as §2

BT-549 [21] = assay: as above; conditions: incubation time: 72 h
Method: as §2

MDA-MB-468 [22] = assay: as above; conditions: incubation time: 72 h
Method: as §2

MDA-MB-436 [23] = assay: as above; conditions: incubation time: 72 h
Method: as §2

CAL-120 [24] = assay: as above; conditions: incubation time: 72 h
Method: as §2

CAL-85-1 [25] = assay: normalised viability (% of control), CellTiter-Blue; higher = more viable cells (about 100 = DMSO control); conditions: incubation time: 72 h
Method in brief: (§3)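 Compound dissolved in 5 µl medium was pre-loaded into 384-well plates, and breast cancer cell lines in 20 µl suspension were seeded on top and incubated 72 h. After adding 2.5 µl CellTiter-Blue reagent for 2 h at 37 °C, fluorescence was read at 560/590 nm. Plates were normalised to vehicle (100) and a positive kill control (0), with Z'-factor quality control. Each value is normalised viability at a single listed concentration from the series.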

Hs578T [26] = assay: as above; conditions: incubation time: 72 h
Method in brief: as §3

BT-474 [27] = assay: as above; conditions: incubation time: 72 h
Method in brief: as §3

MDA-MB-468 [28] = assay: as above; conditions: incubation time: 72 h
Method in brief: as §3

MDA-MB-436 [29] = assay: as above; conditions: incubation time: 72 h
Method in brief: as §3

CAL-120 [30] = assay: as above; conditions: incubation time: 72 h
Method in brief: as §3

CC[C@]1(O)C[C@H]2CN(CCc3c([nH]c4ccccc34)[C@@](C(=O)OC)(c3cc4c(cc3OC)N(C=O)[C@H]3[C@@](O)(C(=O)OC)[C@H](OC(C)=O)[C@]5(CC)C=CCN6CC[C@]43[C@@H]65)C2)C1 [Vincristine]
Conditions | EC50, CellTiter-Glo [nM]
BT-474 [7] | 7.55
BT-549 [9] | 1.71
CAL-51 [5] | 57.3
CAL-85-1 [1] | 2.7
CAL-120 [12] | 3.26
HCC1937 [3] | 2.89
Hs578T [6] | 16.2
MCF-10A | 2.93
MDA-MB-231 [4] | 11.6
MDA-MB-436 [11] | 11.6
MDA-MB-453 [2] | 6.53
MDA-MB-468 [10] | 2.18
SK-BR-3 [8] | 2.33

Conditions | normalised viability [%]
BT-474 [19], 0.1 nM | 97.2
BT-474 [19], 1 nM | 41.5
BT-474 [27], 1 nM | 53.4
BT-474 [27], 10 nM | 47.9
BT-549 [21], 0.1 nM | 93.1
BT-549 [21], 1 nM | 93.5
CAL-51 [17], 0.1 nM | 103
CAL-51 [17], 1 nM | 93.8
CAL-85-1 [13], 0.1 nM | 86.5
CAL-85-1 [13], 1 nM | 91.8
CAL-85-1 [25], 0.3 nM | 95.6
CAL-85-1 [25], 3 nM | 86.1
CAL-120 [24], 0.1 nM | 77.9
CAL-120 [24], 1 nM | 57.7
CAL-120 [30], 1 nM | 58.2
CAL-120 [30], 10 nM | 23.4
CAL-148, 0.1 nM | 87.6
CAL-148, 1 nM | 108
DU-4475, 0.1 nM | 97.6
DU-4475, 1 nM | 88.9
HCC1143, 0.1 nM | 80
HCC1143, 1 nM | 89.6
HCC1599, 0.1 nM | 119
HCC1599, 1 nM | 93.9
HCC1937 [15], 0.1 nM | 74.4
HCC1937 [15], 1 nM | 79.4
HDQ-P1, 0.1 nM | 90
HDQ-P1, 1 nM | 95.3
Hs578T [18], 0.1 nM | 120
Hs578T [18], 1 nM | 92.6
Hs578T [26], 1 nM | 97.2
Hs578T [26], 10 nM | 15.5
MDA-MB-231 [16], 0.1 nM | 95.8
MDA-MB-231 [16], 1 nM | 82.5
MDA-MB-436 [23], 0.1 nM | 89.4
MDA-MB-436 [23], 1 nM | 109
MDA-MB-436 [29], 1 nM | 105
MDA-MB-436 [29], 10 nM | 70.6
MDA-MB-453 [14], 0.1 nM | 107
MDA-MB-453 [14], 1 nM | 88.5
MDA-MB-468 [22], 0.1 nM | 87.5
MDA-MB-468 [22], 1 nM | 49.2
MDA-MB-468 [28], 1 nM | 54.2
MDA-MB-468 [28], 10 nM | 41.2
MFM-223, 0.1 nM | 99.7
MFM-223, 1 nM | 91
SK-BR-3 [20], 0.1 nM | 87.9
SK-BR-3 [20], 1 nM | 25.5

Reference: the supplement of paper PMC4862054
